Laboratory results published in US20240383856A1 (Zedira GmbH, priority 2021, published 2024).
pIC50: −log10 of the molar value. Where two headings read alike, the source gives them in different places.

Experiments:
[1] = Single-dose oral pharmacokinetic profile in mice; assay type: in vivo; conditions: male C57BL/6 mice, single oral dose 200 mg/kg; for CL/F / MRT / half-life / AUC(0-t) / Cmax: mouse, plasma
Procedure: Presumed from promising Papp values (permeability coefficients, see below), the 5 inventors had proven the oral bioavailability of the inhibitors of the present application by the representative compounds II-3, II-15, and II-28. For this selected set of representative compounds, pharmacokinetic profiles were determined in male C57BL/6 mice (N=3, each). Briefly, the compounds were administered as single-dose soluble, oral formulation [20 mg/ml in PBS/(2—Hydroxypropyl)-β-cyclodextrin formulation] at 200 mg/kg. Plasma samples were taken at (0, 0.25, 0.5, 1, 2, 4, and 6 hours) and analyzed by LC-MS to determine the concentration of the representative compounds.

[2] = biological target: T1, recombinant human transglutaminase 2 (Homo sapiens, UniProt P21980); assay: Transglutaminase assay (DCC-assay): incorporation of dansylcadaverine into dimethylcasein; assay type: biochemical
T1 construct: purchased Zedira T022
T1 sequence (P21980 1-687): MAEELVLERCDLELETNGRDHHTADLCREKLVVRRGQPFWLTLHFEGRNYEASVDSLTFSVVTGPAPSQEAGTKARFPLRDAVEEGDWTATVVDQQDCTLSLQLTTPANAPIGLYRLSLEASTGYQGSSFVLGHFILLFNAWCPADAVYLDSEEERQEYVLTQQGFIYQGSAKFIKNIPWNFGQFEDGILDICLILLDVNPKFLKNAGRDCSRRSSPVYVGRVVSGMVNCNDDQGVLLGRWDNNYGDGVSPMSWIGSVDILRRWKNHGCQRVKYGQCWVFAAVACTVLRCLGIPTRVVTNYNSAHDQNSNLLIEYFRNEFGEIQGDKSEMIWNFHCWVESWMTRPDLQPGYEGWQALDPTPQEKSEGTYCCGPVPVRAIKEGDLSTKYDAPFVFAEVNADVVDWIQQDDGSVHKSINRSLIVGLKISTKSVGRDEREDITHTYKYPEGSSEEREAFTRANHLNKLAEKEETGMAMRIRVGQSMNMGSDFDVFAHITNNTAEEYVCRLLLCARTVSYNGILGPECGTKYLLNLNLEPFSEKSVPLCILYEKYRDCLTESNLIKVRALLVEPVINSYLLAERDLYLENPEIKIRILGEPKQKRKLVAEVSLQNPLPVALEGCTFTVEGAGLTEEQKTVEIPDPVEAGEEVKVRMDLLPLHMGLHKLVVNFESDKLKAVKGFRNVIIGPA
Method in brief: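 Recombinant human TG2 (10 nM final) incorporates dansylcadaverine into N,N-dimethylcasein. Reaction mix: 50 mM Tris-HCl, 10 mM CaCl2, 10 mM glutathione, 2.5% glycerol, 16.7 µM dansylcadaverine, 4 µM dimethylcasein, 200 mM NaCl, pH 8.0. Fluorescence (ex 330/em 500 nm) was followed 30 min at 37 °C; the 20–30 min slope, expressed as % of 2% DMSO control, gave IC50.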

[3] = Caco-2 permeability assay (CacoReady kit); assay type: in vitro ADME; conditions: human
Method in brief: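 Papp values come from Caco-2 barrier studies intended to predict oral bioavailability; the manufacturer's procedure for the ready-made kit was followed.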

[4] = logD by shake flask method (octanol / PBS pH 7.4, HPLC); assay type: physicochemical; conditions: octanol / PBS pH 7.4, shake flask
Method in brief: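 Shake-flask partition of compound between octanol and phosphate-buffered saline at pH 7.4, with each phase quantified by HPLC to give LogD.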

[5] = TG2, table with the PK study, read-out: IC50
[6] = recombinant human TG2 10 nM, dansylcadaverine incorporation into dimethylcasein, read-out: IC50 TG2
[7] = Caco-2, Caco-2, read-out: Papp [cm/s] ×10^−6
[8] = Caco-2, Caco-2 barrier, CacoReady kit, above 1×10^−6 cm/s classified as permeable

| Kel [1] [h⁻¹] | CL/F [1] [mL/min/kg] | MRT [1] [h] | half-life [1] [h] | AUC(0-t) [1] [ng·h/mL] | Cmax ([1]; read-out: Cmax) [µM] | Cmax ([1]; read-out: Cmax [ng/ml]) [ng/mL] | IC90 ([2]; TG2, table with the PK study) [nM] | pIC50 [2, 5] | pIC50 [2, 6] | Papp [3, 7] [×10⁻⁶ cm/s] | Papp [3, 8] [×10⁻⁶ cm/s] | logD [4] | Compound |
| --- | --- | --- | --- | --- | --- | --- | --- | --- | --- | --- | --- | --- | --- |
| 0.6 | 247 | 1.6 | 1.1 | 14500 | 23.3 | 15100 | 240 | 7.62 | > 7.40 | 7.4 | 1 to 10 | 1 to 3 | CNC(=O)C(=O)CC[C@H](NC(=O)c1cc(Cl)sc1Cl)C(=O)Nc1cccn(CC(=O)NC2C3CC4CC(C3)CC2C4)c1=O (stereo partly drawn) [II-28, (S)-2-(2,5-dichlorothiophene-3-carboxamido)-N1-(1-(2-(2-adamantylamino)-2-oxoethyl)-2-oxo-1,2-dihydropyridin-3-yl)-N6-methyl-5-oxohexanediamide] |
|  |  |  |  |  |  |  |  |  | 6.40 to 7.40 |  | < 1 | < 1 | CNC(=O)C(=O)CC[C@H](NC(=O)c1cn[nH]n1)C(=O)Nc1cccn(CC(=O)NC2C3CC4CC(C3)CC2C4)c1=O (stereo partly drawn) [II-131, (S)-N1-(1-(2-(2-adamantylamino)-2-oxoethyl)-2-oxo-1,2-dihydropyridin-3-yl)-N6-methyl-5-oxo-2-(2H-1,2,3-triazole-4-carboxamido) hexanediamide] |

Continued, molecule first:

| Compound | Kel [1] [h⁻¹] | CL/F [1] [mL/min/kg] | MRT [1] [h] | half-life [1] [h] | AUC(0-t) [1] [ng·h/mL] | Cmax ([1]; read-out: Cmax) [µM] | Cmax ([1]; read-out: Cmax [ng/ml]) [ng/mL] | IC90 ([2]; TG2, table with the PK study) [nM] | pIC50 [2, 5] | pIC50 [2, 6] | Papp [3, 7] [×10⁻⁶ cm/s] | Papp [3, 8] [×10⁻⁶ cm/s] | logD [4] |
| --- | --- | --- | --- | --- | --- | --- | --- | --- | --- | --- | --- | --- | --- |
| CNC(=O)C(=O)CC[C@H](NC(=O)c1sc(C(F)(F)F)nc1C)C(=O)Nc1cccn(CC(=O)NC2C3CC4CC(C3)CC2C4)c1=O (stereo partly drawn) [II-15, (S)-N1-(1-(2-(2-adamantylamino)-2-oxoethyl)-2-oxo-1,2-dihydropyridin-3-yl)-N6-methyl-2-(4-methyl-2-(trifluoromethyl)thiazole-5-carboxamido)-5-oxohexanediamide] | 0.9 | 102 | 1.1 | 0.9 | 36900 | 48.6 | 32300 | 375 | 7.46 | > 7.40 | 5.9 | 1 to 10 | 1 to 3 |
| CNC(=O)C(=O)CC[C@H](NC(=O)c1sc(Br)cc1Br)C(=O)Nc1cccn(CC(=O)NC2C3CC4CC(C3)CC2C4)c1=O (stereo partly drawn) [II-22, (S)-2-(3,5-dibromothiophene-2-carboxamido)-N1-(1-(2-(2-adamantylamino)-2-oxoethyl)-2-oxo-1,2-dihydropyridin-3-yl)-N6-methyl-5-oxohexanediamide] |  |  |  |  |  |  |  |  |  | > 7.40 |  | 1 to 10 | 3 to 5 |
| CNC(=O)C(=O)CC[C@H](NC(=O)c1nc(C)c(C)s1)C(=O)Nc1cccn(CC(=O)NC2C3CC4CC(C3)CC2C4)c1=O (stereo partly drawn) [II-38, (S)-2-(4,5-dimethylthiazole-2-carboxamido)-N1-(1-(2-(2-adamantylamino)-2-oxoethyl)-2-oxo-1,2-dihydropyridin-3-yl)-N6-methyl-5-oxohexanediamide] |  |  |  |  |  |  |  |  |  | 5.60 to 6.40 |  | 1 to 10 | 3 to 5 |
